From patent US6706663B2, “Herbicidal 3-heterocyclic substituted benzisothiazole and benzisoxazole compounds” (Wyeth, priority 2000, dated 2004) come the findings set out here.

Assay in all cases: Postemergence herbicidal evaluation
Common to all, as to conditions: postemergence

One assay concerns SETVI (Setaria viridis). The class given is in vivo, (L.) Beau. The procedure, abridged:
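Postemergence foliar spray on two-week-old seedlings, dose equivalent to about 0.0040 to 1.000 kg/ha. Ratings use a 0-9 visual scale relative to control at four to five weeks.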

The test system of assay [1] is ECHCG (Echinochloa crus-galli). It is filed as in vivo, (L.) Beau. The procedure, abridged:
(§1)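 Seedlings grown about two weeks in flats, sprayed, then kept under standard greenhouse care. Rated visually 4–5 weeks after treatment on a 0–9 scale (stand, vigour, malformation, size, chlorosis, overall appearance) relative to untreated control; repeat tests averaged.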

Assay [2] has as its system ABUTH (Abutilon theophrasti). The class given is in vivo, Medic. The procedure, abridged: as §1
Assay [3] relates to IPOHE (Ipomoea hederacea). The class given is in vivo, (L.) Jacq. The procedure, abridged: as §1
The next assay has as its system ZEAMX (Corn, Field). It is filed as in vivo, Zea mays, L. The procedure, abridged: as §1
The next assay concerns GLXMA (Soybean). The class given is in vivo, Glycine max, (L.) Merr. The method, then: In the tests, seedling plants are grown in jiffy flats for about two weeks. The test compounds are dispersed in 50/50 acetone/water mixtures containing 0.5% TWEEN® 20, a polyoxyethylene sorbitan monolaurate surfactant of Atlas Chemical Industries, in sufficient quantities to provide the equivalent of about 0.0040 kg to 1.000 kg per hectare of active compound when applied to the plants through a spray nozzle operating at 40 psi for a predetermined time. After spraying, the plants are placed on greenhouse benches and are cared for in accordance with conventional greenhouse procedures. From four to five weeks after treatment, the seedling plants are examined and rated according to the rating system set forth below. Where more than one test is involved for a given compound, the data are averaged.
Results of herbicide evaluation are expressed on a rating scale (0-9). The scale is based upon a visual observation of plant stand, vigor, malformation, size, chlorosis and overall plant appearance as compared with a control.

Assay [4] relates to CHEAL (Chenopodium album). It is filed as in vivo, L. The procedure, abridged: as §1
In assay [5] the test system is AMBEL (Ambrosia artemisifolia). The class given is in vivo, L. The procedure, abridged: as §1

`Cn1c(C(F)(F)F)cc(=O)n(-c2ccc3snc(C4(O)N=C(C(C)(C)C)NC4=O)c3c2)c1=O` (stereo not shown) [Compound 95, 3-[3-(2-tert-butyl-4-hydroxy-5-oxo-2-imidazolin-4-yl)-1,2-benzisothiazol-5-yl]-1-methyl-6-(trifluoromethyl)uracil]: the SETVI herbicidal rating in the assay on SETVI (Setaria viridis) (rate 0.0320 kg/ha) is reported as 4.0; with SETVI (Setaria viridis) (rate 0.0620 kg/ha), 7.0. Moreover, the results for the ECHCG herbicidal rating in assay [1] (rate 0.0320 kg/ha) and in assay [1] (rate 0.0620 kg/ha) were 2.0 and 3.0, respectively. The ABUTH herbicidal rating in assay [2] (rate 0.0320 kg/ha) and in assay [2] (rate 0.0620 kg/ha) was 9.0 throughout. The values for the IPOHE herbicidal rating in assay [3] (rate 0.0320 kg/ha) and in assay [3] (rate 0.0620 kg/ha) were 8.0 and 9.0, respectively. In addition, the ZEAMX herbicidal rating in the assay on ZEAMX (Corn, Field) (rate 0.0320 kg/ha) was found to be 3.5; with ZEAMX (Corn, Field) (rate 0.0620 kg/ha), 3.5. In addition, the GLXMA herbicidal rating with GLXMA (Soybean) (rate 0.0320 kg/ha) and in the assay on GLXMA (Soybean) (rate 0.0620 kg/ha) was 8.0 throughout. The CHEAL herbicidal rating amounted to 8.0 in assay [4] (rate 0.0320 kg/ha) and 9.0 in assay [4] (rate 0.0620 kg/ha). Moreover, the AMBEL herbicidal rating came out at 4.0 in assay [5] (rate 0.0320 kg/ha) and 8.0 in assay [5] (rate 0.0620 kg/ha).
